# Measurements: paper PMC7563222, “Recognition of Dimeric Lewis X by Anti-Dimeric Le^x Antibody SH2” (Vaccines, 2020)
# Like-named read-outs stand apart in the source and are kept apart here.
# Columns and labels:
# mAb SH2 [1] = assay: Competitive ELISA: inhibition of mAb SH2 binding to immobilized (DimLe^x)16-BSA conjugate 1; parameters: species or system mouse; details: for IC50: DimLe^x-BSA conjugate 1 immobilized (5 μg/mL), SH2 ascites 1:500; for ∆(∆G): RT ln([I1]/[I2]), reference inhibitor DimLe^x 6; for ∆(∆G) / SH2 ∆(∆G): T = 296 K; for SH2 ∆(∆G): reference inhibitor Le^x 7, --- = No inhibition
# Procedure: A MaxiSorp NUNC 96-well ELISA microtiter plate was coated with a dilution of the (DimLe^x)16-BSA conjugate 1 (100 μL per well, 5 μg/mL) in a 10 mM PBS solution at pH 7.1. The plate was covered with sealing tape and incubated at 4 °C overnight. The antigen solution was discarded, and the plate was washed (using ELx405 auto plate washer, 5 × 15 s) with a 10 mM PBS buffer at pH 7.3 containing 0.05% Tween 20. In 1.5 mL Eppendorf tubes, 175 μL dilutions of competitors (concentration ranging from 0.632 mg/mL to 2 mg/mL in 10 mM PBS-0.05% Tween 20) were incubated for 1 h at 23 °C (in the dark) with 175 μL of a solution of SH2 ascites (1:500 dilution in 10 mM PBS-0.05% Tween 20). At the same time, the plate was blocked with 0.05% skim milk in PBS (300 μL per well). After 1 h of incubation at 37 °C, the plate was washed with 10 mM PBS-0.05% Tween 20. Each well then received 100 μL of the competitor-mAb mixture. Three wells were used as the blank control in which the competitor-mAb mixture was not added, rather received 100 μL of 10 mM PBS-0.05% Tween 20. The plate was incubated for 3 h at 23 °C (in the dark). The plate was subsequently washed using the plate washer with PBS-0.05% Tween 20. A dilution of commercially available horseradish peroxidase labeled goat anti-mouse antibody (1:5000 in 10 mM PBS-0.05% Tween 20, 100 μL per well) was added to each well. After 1 h of incubation at 23 °C (in the dark), the plate was washed with 10 mM PBS-0.05% Tween 20. A solution of the chromogenic substrate TMB (100 μL per well) was added. After a 10 min incubation period at 23 °C (in the dark), 100 μL of 5% Phosphoric Acid stop solution was added to the wells to quench the reaction. The absorbance values were read at 450 nm employing a PowerWave XS plate reader. All samples were prepared in triplicate. The absorbance values were plotted as the percentage inhibition against an increasing concentration of competitor, calculated using wells containing no competitor as the reference point. The values were fitted to a 4-parameter logistics sigmoidal equation: y = y0 + a/[1 + (x/x0)^b] using Sigma Plot 10.0. The concentration of each analogue required for 50% inhibition (IC50) of Le^x-SH2 binding and the corresponding changes in free energy Δ(ΔG) of binding (kcal·mol^−1) using DimLe^xOPr 6 (Table 1) or Le^xOMe 7 (Table 2) as the reference were calculated.
# mAb 1G5F6 = tested on: mAb 1G5F6; parameters: method as in PMID 31666308; details: DimLe^x-BSA conjugate 1 immobilized; Le^x trisaccharide 7 as reference; --- = No inhibition; cited from earlier work
# mAb SH1 = details: cited from earlier work; for SH1 ∆(∆G): Le^x-BSA conjugate 4 immobilized, Le^x trisaccharide 7 as reference, --- = No inhibition
# mAb SH2 [2] = assay: Indirect titration ELISA of SH2 ascites against coated glycoconjugates; format: binding, mouse; details: for Binding of SH2 to coated antigen (titration, in words): antigens coated at 10 μg/mL, 2 and 5 also at 20 µg/mL (not shown)
# Procedure: MaxiSorp NUNC 96-well enzyme-linked immunosorbent assay (ELISA) microtiter plate (Thermo Fisher Scientific) was coated with a dilution of glycoconjugates 1–5 and BSA (100 μL per well, […]) in a 10 mM phosphate-buffered saline (PBS) solution at pH 7.1. The plate was covered with sealing tape and incubated at 4 °C overnight. The antigen solution was discarded, and the plate was washed (using ELx405 auto plate washer, 5 × 15 s) with a 10 mM PBS buffer at pH 7.3 containing 0.05% Tween 20. The plate was blocked with 0.05% skim milk in 10 mM PBS (300 μL per well) and incubated for 1 h at 37 °C. The plate was then washed with 10 mM PBS-0.05% Tween 20. A 1:100 dilution of SH2 ascites was prepared and 146 μL of the dilution was distributed in the wells corresponding to the primary dilution. All other wells received 100 μL of the 10 mM PBS-0.05% Tween 20 pH 7.3 buffer. In-plate serial dilutions were performed in which 46 μL of the primary dilution was pipetted downward along the rows. The well contents were mixed by rinsing the pipette tips (7×). Lastly, 46 μL of the mAb solution was removed and discarded from the wells, which received the final solution of mAb (final volume in all wells, 100 μL). The last row of the 96-well plate was used as the blank control. MAb SH2 ascites were not pipetted into these wells, rather 100 μL of 10 mM PBS-0.05% Tween 20 was added. The plate was incubated for 2 h at 23 °C (in the dark). The plate was subsequently washed using the plate washer with PBS-0.05% Tween 20. A dilution of commercially available horseradish peroxidase labeled goat anti-mouse antibody (Mandel Scientific) (1:5000 in 10 mM PBS-0.05% Tween 20, 100 μL per well) was added to each well. After 1 h of incubation at 23 °C (in the dark), the plate was washed with PBS-0.05% Tween 20. A solution of the chromogenic substrate 3,3′,5,5′-tetramethylbenzidine (TMB) (Mandel Scientific) (100 μL per well) was added. After a 10 min incubation period at 23 °C (in the dark), 100 μL of 5% Phosphoric Acid stop solution was added to the wells to quench the reaction. The absorbance values were read at 450 nm employing a PowerWave XS plate reader. All samples were prepared in triplicate. The absorbance values were plotted against an increasing serum dilution. The values were fitted to a 4-parameter logistics sigmoidal equation: y = y0 + a/[1 + (x/x0)^b] using Sigma Plot®® 10.0.
# [3] = Table 1, read-out: IC50 (concentration of inhibitor required for 50% inhibition)
Compound,1G5F6 ∆(∆G) (mAb 1G5F6),SH1 ∆(∆G) (mAb SH1),SH2 ∆(∆G) (mAb SH2 [1]; Table 2),"IC50 (mAb SH2 [1]; Table 2, read-out: SH2 IC50)",also measured
"CCCO[C@@H]1O[C@H](CO)[C@@H](O[C@@H]2O[C@H](CO)[C@H](O)[C@H](O[C@@H]3O[C@H](CO)[C@@H](O[C@@H]4O[C@H](CO)[C@H](O)[C@H](O)[C@H]4O)[C@H](O[C@@H]4O[C@@H](C)[C@@H](O)[C@@H](O)[C@@H]4O)[C@H]3NC(C)=O)[C@H]2O)[C@H](O[C@@H]2O[C@@H](C)[C@@H](O)[C@@H](O)[C@@H]2O)[C@H]1NC(C)=O [compound 6, DimLe^x propyl hexasaccharide]",–,–,–,–,IC50 (mAb SH2 [1]; [3]): 503 µM; ∆(∆G) (mAb SH2 [1]; Table 1): 0 kcal/mol
"CO[C@@H]1O[C@H](CO)[C@@H](O[C@@H]2O[C@H](CO)[C@H](O)[C@H](O)[C@H]2O)[C@H](O[C@@H]2O[C@@H](C)[C@@H](O)[C@@H](O)[C@@H]2O)[C@H]1NC(C)=O [compound 7, Le^x methyl glycoside]",0 kcal/mol,0 kcal/mol,0 kcal/mol,–,IC50 (mAb SH2 [1]; [3]): 47 µM; ∆(∆G) (mAb SH2 [1]; Table 1): -1.4 kcal/mol
"CC(=O)NC1C(OC2C(O)C(O)OC(CO)C2O)OC(CO)C(OC2OC(CO)C(O)C(O)C2O)C1OC1OC(C)C(O)C(O)C1O (stereo not drawn) [compound 9, Lex[1,3]Gal, reference compound]",–,–,–,–,IC50 (mAb SH2 [1]; [3]): 529 µM; ∆(∆G) (mAb SH2 [1]; Table 1): 0.03 kcal/mol
"CO[C@@H]1O[C@H](CO)[C@@H](O[C@@H]2O[C@H](CO)[C@H](O)[C@H](O[C@@H]3O[C@H](CO)[C@@H](O)[C@H](O)[C@H]3NC(C)=O)[C@H]2O)[C@H](O[C@@H]2O[C@@H](C)[C@@H](O)[C@@H](O)[C@@H]2O)[C@H]1NC(C)=O [compound 10, GlcNAc[1,3″]Le^x]",–,–,–,–,IC50 (mAb SH2 [1]; [3]): 18600 µM; ∆(∆G) (mAb SH2 [1]; Table 1): 2.1 kcal/mol
"CCCCCCO[C@@H]1O[C@H](CO)[C@@H](O[C@@H]2O[C@H](CO)[C@H](O)[C@H](O[C@@H]3O[C@H](CO)[C@@H](O[C@@H]4O[C@H](CO)[C@H](O)[C@H](O)[C@H]4O)[C@H](O)[C@H]3NC(C)=O)[C@H]2O)[C@H](O[C@@H]2O[C@@H](C)[C@@H](O)[C@@H](O)[C@@H]2O)[C@H]1NC(C)=O [compound 13, LacNAc[1,3″]Lex]",–,–,–,–,Inhibition of SH2 binding to (DimLe^x)16-BSA by soluble oligosaccharide (in words) (mAb SH2 [1]): lack of competitive binding
"CCCCCO[C@@H]1O[C@H](CO)[C@@H](O[C@@H]2O[C@H](CO)[C@H](O)[C@H](O[C@@H]3O[C@H](CO)[C@@H](O)[C@H](O[C@@H]4O[C@@H](C)[C@@H](O)[C@@H](O)[C@@H]4O)[C@H]3NC(C)=O)[C@H]2O)[C@H](O[C@@H]2O[C@@H](C)[C@@H](O)[C@@H](O)[C@@H]2O)[C@H]1NC(C)=O [compound 14, Fuc[1,3,]GlcNAc[1,3″]Le^x]",–,–,–,–,Inhibition of SH2 binding to (DimLe^x)16-BSA by soluble oligosaccharide (in words) (mAb SH2 [1]): lack of competitive binding
"CO[C@@H]1O[C@H](CO)[C@@H](O[C@@H]2O[C@H](CO)[C@H](O)[C@H](O)[C@H]2O)[C@H](O[C@@H]2O[C@@H](C)[C@@H](O)[C@@H](O)[C@@H]2O)[C@H]1O [compound 15, LacLe^x]",2.5 kcal/mol,0.2 kcal/mol,–,> 1800 µM,Inhibition of SH2 binding to (DimLe^x)16-BSA by soluble oligosaccharide (in words) (mAb SH2 [1]): no inhibition
"COC1OC(CO)C(OC2OC(CO)C(O)C(O)C2O)C(OC2OC(C)C(O)C(O)C2O)C1NC(C)=O (stereo not drawn) [compound 16, GlcLe^x]",2.7 kcal/mol,–,–,> 1800 µM,Binding by SH1 (in words) (mAb SH1; galactose of Le^x replaced by glucose): total loss of binding; Inhibition of SH2 binding to (DimLe^x)16-BSA by soluble oligosaccharide (in words) (mAb SH2 [1]): no inhibition
"CO[C@@H]1O[C@H](CO)[C@@H](O[C@@H]2O[C@H](CO)[C@H](O)[C@H](O)[C@H]2O)[C@H](O[C@@H]2O[C@@H](C)[C@H](O)[C@@H](O)[C@H]2O)[C@H]1NC(C)=O [compound 17, RhaLe^x]",1.6 kcal/mol,1.1 kcal/mol,1.7 kcal/mol,827 µM,–
"CO[C@@H]1O[C@H](CO)[C@@H](O[C@@H]2O[C@H](CO)[C@H](O)[C@H](O)[C@H]2O)[C@H](O[C@@H]2O[C@@H](C)[C@H](O)[C@@H](O)[C@H]2O)[C@H]1O [compound 18, RhaLac]",3.2 kcal/mol,1.5 kcal/mol,–,> 1800 µM,Inhibition of SH2 binding to (DimLe^x)16-BSA by soluble oligosaccharide (in words) (mAb SH2 [1]): no inhibition
CO[C@@H]1O[C@H](CO)[C@@H](O[C@@H]2O[C@H](CO)[C@H](OC)[C@H](O)[C@H]2O)[C@H](O[C@@H]2O[C@@H](C)[C@@H](O)[C@@H](O)[C@@H]2O)[C@H]1O [compound 19],–,–,0.7 kcal/mol,148 µM,–
"CO[C@@H]1O[C@H](CO)[C@@H](O[C@@H]2O[C@H](CO)C[C@H](O)[C@H]2O)[C@H](O[C@@H]2O[C@@H](C)[C@@H](O)[C@@H](O)[C@@H]2O)[C@H]1O [compound 20, 4″-HLe^x]",0.3 kcal/mol,1.3 kcal/mol,0.3 kcal/mol,74 µM,–
"CO[C@@H]1O[C@H](CO)[C@@H](O[C@@H]2O[C@H](CO)[C@H](Cl)[C@H](O)[C@H]2O)[C@H](O[C@@H]2O[C@@H](C)[C@@H](O)[C@@H](O)[C@@H]2O)[C@H]1O [compound 21, 4″-ClLe^x]",0.3 kcal/mol,1.6 kcal/mol,-0.5 kcal/mol,19 µM,–
"CO[C@@H]1O[C@H](CO)[C@@H](O[C@@H]2O[C@H](CO)[C@H](F)[C@H](O)[C@H]2O)[C@H](O[C@@H]2O[C@@H](C)[C@@H](O)[C@@H](O)[C@@H]2O)[C@H]1O [compound 22, 4″-FLe^x]",-0.1 kcal/mol,2.1 kcal/mol,-0.6 kcal/mol,17 µM,–
(DimLe^x)6-TT [compound 2],–,–,–,–,"Binding of SH2 to coated antigen (titration, in words) (mAb SH2 [2]): very little binding"
(DimLe^x)16-BSA [compound 1],–,–,–,–,"Titration curve of SH2 (in words) (mAb SH2 [2]; coating with 3 µg/mL of the conjugate (Figure S1)): did not reach maximum optical density; Inhibition of SH2 binding to (DimLe^x)16-BSA by glycoconjugates as soluble inhibitors (in words) (mAb SH2 [1]; (DimLe^x)16-BSA 1 immobilized, SH2 serum dilution 1:500 (Figure 5)): able to inhibit binding"
(GDimLe^x)16-BSA [compound 5],–,–,–,–,"Binding of SH2 to coated antigen (titration, in words) (mAb SH2 [2]): no binding"
"bovine serum albumin [BSA, reference compound]",–,–,–,–,"Binding of SH2 to coated antigen (titration, in words) (mAb SH2 [2]): no affinity"
